*1 amine or outer side, *2 acyl side, *3 side chain or, on linkers, in order; H or OH if unused. Where a SMILES comes first, the peptide text is derived from it. Side-chain parts run from the residue outwards. [ ]: non-standard residue; d: D form. The star is where a group is joined. C20 diacid = O=C(O)CCCCCCCCCCCCCCCCCCC(=O)*; C18 diacid = O=C(O)CCCCCCCCCCCCCCCCC(=O)*; C16 diacid = O=C(O)CCCCCCCCCCCCCCC(=O)*; γGlu = O=C(O)[C@H](CCC(=O)[*:2])N[*:1]; Api = NC1(C(=O)O)CCNCC1; AEEA = NCCOCCOCC(=O)O; Aib = CC(C)(N)C(=O)O
Experiments:
human CRF2a receptor = molecular target: T1, human CRF2a receptor (Homo sapiens, UniProt Q13324); test: Activity at human CRF2a receptor, cAMP functional assay in TeloHEAC cells; format: cell-based; conditions: TeloHEAC cells stably expressing human CRF2a receptor, relative to urocortin 2 (100 nM = 100%)
T1 construct: expressed in transfected cells; host or cells: TeloHEAC cells
T1 sequence (Q13324 1-411): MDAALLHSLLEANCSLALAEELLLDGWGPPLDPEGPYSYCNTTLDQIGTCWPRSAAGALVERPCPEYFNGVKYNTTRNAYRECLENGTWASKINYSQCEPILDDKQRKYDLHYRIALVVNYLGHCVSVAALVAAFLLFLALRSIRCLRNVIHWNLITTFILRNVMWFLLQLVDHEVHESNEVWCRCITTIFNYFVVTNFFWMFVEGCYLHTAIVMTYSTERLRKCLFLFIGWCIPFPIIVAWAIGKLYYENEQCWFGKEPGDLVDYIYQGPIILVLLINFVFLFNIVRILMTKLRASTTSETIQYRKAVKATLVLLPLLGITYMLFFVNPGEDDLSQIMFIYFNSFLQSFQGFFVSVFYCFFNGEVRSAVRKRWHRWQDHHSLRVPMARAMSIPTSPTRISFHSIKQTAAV
Summary of the method: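 cAMP accumulation was measured by HTRF 665/620 nm ratio after 30 min at 37° C compound exposure (16 twofold dilutions) of CRF2a-expressing TeloHEAC cells, 10000/well, in HEPES-buffered HBSS plus IBMX. Activity was normalised to urocortin 2 at 100 nM (100%), and EC50 was the concentration giving half-maximal activation.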

CFR1R receptor = molecular target: T2, CFR1R receptor (Homo sapiens, UniProt P34998); test: Activity at anti-target CFR1R receptor, cAMP assay in CRF1R-overexpression CHO-K1 cells; format: cell-based; conditions: 100% = Sauvagine at 100 nM; for EC50: cAMP
T2 construct: host or cells: CHO-K1 (clone 2)
T2 sequence (P34998 24-415): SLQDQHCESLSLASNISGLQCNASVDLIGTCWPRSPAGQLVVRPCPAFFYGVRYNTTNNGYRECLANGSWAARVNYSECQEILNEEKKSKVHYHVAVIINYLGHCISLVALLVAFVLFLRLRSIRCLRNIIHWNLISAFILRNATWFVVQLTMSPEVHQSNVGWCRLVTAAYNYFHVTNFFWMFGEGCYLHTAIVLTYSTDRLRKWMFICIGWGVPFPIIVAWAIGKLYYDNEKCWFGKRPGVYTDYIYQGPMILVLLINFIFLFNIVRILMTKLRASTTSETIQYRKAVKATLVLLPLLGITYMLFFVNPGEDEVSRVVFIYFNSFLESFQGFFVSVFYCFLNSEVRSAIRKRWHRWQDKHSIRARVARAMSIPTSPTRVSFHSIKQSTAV
Summary of the method: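 Clone 2 cells were cultured in F12 (Hams)/10% FBS/400 μg/ml G418 at 37° C./5% CO2, frozen in medium with 10% DMSO, and thawed vials used. The protocol followed the TeloHAEC procedure, with 4000 cells/well final and Sauvagine at 100 nM defining 100% activation.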

| EC50 (human CRF2a receptor) | Emax (% I) (CFR1R receptor) | EC50 (CFR1R receptor) | Structure (SMILES) |
| --- | --- | --- | --- |
| 2.43 nM | 14 % I | > 250 nM | CC[C@H](C)[C@H](NC(C)=O)C(=O)N[C@H](C(=O)N[C@@H](CC(C)C)C(=O)N[C@@H](CO)C(=O)N[C@@H](CC(C)C)C(=O)N[C@@H](CC(=O)O)C(=O)N[C@@H](C(=O)N1CCC[C@H]1C(=O)N[C@H](C(=O)N[C@@H](CCCCN)C(=O)N[C@@H](CC(C)C)C(=O)N[C@@H](CCCCNC(=O)CC[C@H](NC(=O)CCCCCCCCCCCCCCC(=O)O)C(=O)O)C(=O)N[C@@H](C)C(=O)N[C@H](C(=O)N[C@@H](CC(C)C)C(=O)N[C@@H](CC(C)C)C(=O)N[C@@H](CCC(=O)O)C(=O)N[C@@H](CCC(N)=O)C(=O)N[C@@H](CCC(=O)O)C(=O)N[C@@H](CCCCN)C(=O)N[C@@H](CCC(N)=O)C(=O)N[C@@H](CCCCN)C(=O)N[C@@H](CCCCN)C(=O)N[C@@H](CCC(N)=O)C(=O)N[C@@H](CCCNC(=N)N)C(=O)N[C@@H](CCC(=O)O)C(=O)N[C@@H](CCC(N)=O)C(=O)N[C@@H](C)C(=O)N[C@@H](CCC(=O)O)C(=O)N[C@H](C(=O)N[C@@H](CC(N)=O)C(=O)NC(C)(C)C(=O)N[C@@H](CCC(N)=O)C(=O)N[C@H](C(=O)N[C@@H](CC(C)C)C(=O)N[C@@H](C)C(=O)N[C@@H](CCC(N)=O)C(=O)N[C@H](C(N)=O)C(C)C)[C@@H](C)CC)[C@@H](C)O)[C@@H](C)CC)[C@@H](C)CC)C(C)C)C(C)C [compound 164] (Ac-IVLSLD[dV]PIKLK([γGlu-C16 diacid])AILLEQEKQKKQREQAETN[Aib]QILAQV-NH2) |
| 0.22 nM | 4 % I | > 250 nM | CC[C@H](C)[C@H](NC(C)=O)C(=O)N[C@H](C(=O)N[C@@H](CC(C)C)C(=O)N[C@@H](CO)C(=O)N[C@@H](CC(C)C)C(=O)N[C@@H](CC(=O)O)C(=O)N[C@@H](C(=O)N1CCC[C@H]1C(=O)N[C@H](C(=O)N[C@@H](CCCCN)C(=O)N[C@@H](CC(C)C)C(=O)N[C@@H](CCCCNC(=O)COCCOCCNC(=O)COCCOCCNC(=O)CC[C@H](NC(=O)CCCCCCCCCCCCCCCCCCC(=O)O)C(=O)O)C(=O)N[C@@H](CCCCN)C(=O)N[C@H](C(=O)N[C@@H](CC(C)C)C(=O)N[C@@H](CC(C)C)C(=O)N[C@@H](CCC(=O)O)C(=O)N[C@@H](CCC(N)=O)C(=O)N[C@@H](CCC(=O)O)C(=O)N[C@@H](CCCCN)C(=O)N[C@@H](CCC(N)=O)C(=O)N[C@@H](CCCCN)C(=O)N[C@@H](C)C(=O)N[C@@H](CCC(N)=O)C(=O)N[C@@H](CCCNC(=N)N)C(=O)N[C@@H](CCC(=O)O)C(=O)N[C@@H](CCC(N)=O)C(=O)N[C@@H](C)C(=O)N[C@@H](CCC(=O)O)C(=O)N[C@H](C(=O)N[C@@H](CC(N)=O)C(=O)NC(C)(C)C(=O)N[C@@H](CCC(N)=O)C(=O)N[C@H](C(=O)N[C@@H](CC(C)C)C(=O)N[C@@H](C)C(=O)N[C@@H](CCC(N)=O)C(=O)N[C@H](C(N)=O)C(C)C)[C@@H](C)CC)[C@@H](C)O)[C@@H](C)CC)[C@@H](C)CC)C(C)C)C(C)C [compound 240] (Ac-IVLSLD[dV]PIKLK([AEEA-AEEA-γGlu-C20 diacid])KILLEQEKQKAQREQAETN[Aib]QILAQV-NH2) |
| 0.41 nM | 22 % I | > 250 nM | CC[C@H](C)[C@H](NC(C)=O)C(=O)N[C@H](C(=O)N[C@@H](CC(C)C)C(=O)N[C@@H](CO)C(=O)N[C@@H](CC(C)C)C(=O)N[C@@H](CC(=O)O)C(=O)N[C@@H](C(=O)N1CCC[C@H]1C(=O)N[C@H](C(=O)N[C@@H](CCCCN)C(=O)N[C@@H](CC(C)C)C(=O)N[C@@H](CCCCNC(=O)CC[C@H](NC(=O)CCCCCCCCCCCCCCC(=O)O)C(=O)O)C(=O)N[C@@H](CCCCN)C(=O)N[C@H](C(=O)N[C@@H](CC(C)C)C(=O)N[C@@H](CC(C)C)C(=O)N[C@@H](CCC(=O)O)C(=O)N[C@@H](CCC(N)=O)C(=O)N[C@@H](CCC(=O)O)C(=O)N[C@@H](CCCCN)C(=O)N[C@@H](CCC(N)=O)C(=O)N[C@@H](CCCCN)C(=O)NC(C)(C)C(=O)N[C@@H](CCC(N)=O)C(=O)N[C@@H](CCCNC(=N)N)C(=O)N[C@@H](CCC(=O)O)C(=O)N[C@@H](CCC(N)=O)C(=O)N[C@@H](C)C(=O)N[C@@H](CCC(=O)O)C(=O)N[C@H](C(=O)N[C@@H](CC(N)=O)C(=O)NC1(C(=O)N[C@@H](CCC(N)=O)C(=O)N[C@H](C(=O)N[C@@H](CC(C)C)C(=O)N[C@@H](C)C(=O)N[C@@H](CCC(N)=O)C(=O)N[C@H](C(N)=O)C(C)C)[C@@H](C)CC)CCNCC1)[C@@H](C)O)[C@@H](C)CC)[C@@H](C)CC)C(C)C)C(C)C [compound 153] (Ac-IVLSLD[dV]PIKLK([γGlu-C16 diacid])KILLEQEKQK[Aib]QREQAETN[Api]QILAQV-NH2) |
| 0.15 nM | 63 % I | – | CC[C@H](C)[C@H](NC(C)=O)C(=O)N[C@H](C(=O)N[C@@H](CC(C)C)C(=O)N[C@@H](CO)C(=O)N[C@@H](CC(C)C)C(=O)N[C@@H](CC(=O)O)C(=O)N[C@@H](C(=O)N1CCC[C@H]1C(=O)N[C@H](C(=O)N[C@@H](CCCCN)C(=O)N[C@@H](CC(C)C)C(=O)N[C@@H](CCCCNC(=O)CC[C@H](NC(=O)CCCCCCCCCCCCCCCCCCC(=O)O)C(=O)O)C(=O)N[C@@H](CCCCN)C(=O)N[C@H](C(=O)N[C@@H](CC(C)C)C(=O)N[C@@H](CC(C)C)C(=O)N[C@@H](CCC(=O)O)C(=O)N[C@@H](CCC(N)=O)C(=O)N[C@@H](CCC(=O)O)C(=O)N[C@@H](CCCCN)C(=O)N[C@@H](CCC(N)=O)C(=O)N[C@@H](CCCCN)C(=O)NC(C)(C)C(=O)N[C@@H](CCC(N)=O)C(=O)N[C@@H](CCCNC(=N)N)C(=O)N[C@@H](CCC(=O)O)C(=O)N[C@@H](CCC(N)=O)C(=O)N[C@@H](C)C(=O)N[C@@H](CCC(=O)O)C(=O)N[C@H](C(=O)N[C@@H](CC(N)=O)C(=O)NC1(C(=O)N[C@@H](CCC(N)=O)C(=O)N[C@H](C(=O)N[C@@H](CC(C)C)C(=O)N[C@@H](C)C(=O)N[C@@H](CCC(N)=O)C(=O)N[C@H](C(N)=O)C(C)C)[C@@H](C)CC)CCNCC1)[C@@H](C)O)[C@@H](C)CC)[C@@H](C)CC)C(C)C)C(C)C [compound 208] (Ac-IVLSLD[dV]PIKLK([γGlu-C20 diacid])KILLEQEKQK[Aib]QREQAETN[Api]QILAQV-NH2) |
| 0.05 nM | 20 % I | > 250 nM | CC[C@H](C)[C@H](NC(C)=O)C(=O)N[C@H](C(=O)N[C@@H](CC(C)C)C(=O)N[C@@H](CO)C(=O)N[C@@H](CC(C)C)C(=O)N[C@@H](CC(=O)O)C(=O)N[C@@H](C(=O)N1CCC[C@H]1C(=O)N[C@H](C(=O)N[C@@H](CCCCN)C(=O)N[C@@H](CC(C)C)C(=O)N[C@@H](CCCCNC(=O)CC[C@H](NC(=O)CCCCCCCCCCCCCCCCC(=O)O)C(=O)O)C(=O)N[C@@H](CCCCN)C(=O)N[C@H](C(=O)N[C@@H](CC(C)C)C(=O)N[C@@H](CC(C)C)C(=O)N[C@@H](CCC(=O)O)C(=O)N[C@@H](CCC(N)=O)C(=O)N[C@@H](CCC(=O)O)C(=O)N[C@@H](CCCCN)C(=O)N[C@@H](CCC(N)=O)C(=O)N[C@@H](CCCCN)C(=O)N[C@@H](CCCCN)C(=O)N[C@@H](CCC(N)=O)C(=O)N[C@@H](CCCNC(=N)N)C(=O)N[C@@H](CCC(=O)O)C(=O)N[C@@H](CCC(N)=O)C(=O)N[C@@H](C)C(=O)N[C@@H](CCC(=O)O)C(=O)N[C@H](C(=O)N[C@@H](CC(N)=O)C(=O)N[C@@H](C)C(=O)N[C@@H](CCC(N)=O)C(=O)N[C@H](C(=O)N[C@@H](CC(C)C)C(=O)N[C@@H](C)C(=O)N[C@@H](CCC(N)=O)C(=O)N[C@H](C(N)=O)C(C)C)[C@@H](C)CC)[C@@H](C)O)[C@@H](C)CC)[C@@H](C)CC)C(C)C)C(C)C [compound 126] (Ac-IVLSLD[dV]PIKLK([γGlu-C18 diacid])KILLEQEKQKKQREQAETNAQILAQV-NH2) |

Reference: patent US20260001928A1 (CORTERIA PHARMACEUTICALS, priority 2022, published 2026)
